≈ marks a conversion by molar mass, not a printed value. Like-named read-outs stand apart in the source and are kept apart here.
What was measured:
[1] = tested on: Serine-carbapenemase-producing Enterobacterales (6); experiment: MIC and MBC testing; format: cell-based; conditions: 6 serine-carbapenemase-producing Enterobacterales; fixed BLI concentration (μg/mL) in label
[2] = tested on: Metallo-carbapenemase-producing Enterobacterales (11); experiment: MIC and MBC testing; format: cell-based; conditions: 11 metallo-carbapenemase-producing Enterobacterales; fixed BLI concentration (μg/mL) in label
[3] = tested on: 55 isolates of A. baumannii; experiment: MIC, broth microdilution; format: cell-based, Acinetobacter baumannii; conditions: Acinetobacter baumannii (55)
[4] = tested on: MEM-nonsusceptible Enterobacterales; experiment: MIC, broth microdilution; format: cell-based; conditions: MEM-nonsusceptible Enterobacterales (127), cefiderocol 126 isolates
96 P. aeruginosa = experiment: MIC, broth microdilution; format: cell-based, Pseudomonas aeruginosa; conditions: Pseudomonas aeruginosa (96)
[5] = tested on: MEM-nonsusceptible Enterobacterales with metallo-carbapenemases; experiment: MIC, broth microdilution; format: cell-based; conditions: MEM-nonsusceptible Enterobacterales with metallo-carbapenemases (55), cefiderocol 54 isolates
[6] = tested on: MEM-, imipenem/relebactam-, and ceftolozane/tazobactam-nonsusceptible P. aeruginosa; experiment: MIC, broth microdilution; format: cell-based, Pseudomonas aeruginosa; conditions: for CLSI MIC interpretation I (intermediate) / CLSI MIC interpretation R (resistant) / CLSI MIC interpretation S (susceptible): CLSI breakpoints, marked c: breakpoints for β-lactam alone; for MIC50 / MIC90: Pseudomonas aeruginosa, fixed concentration (μg/mL) in label; for MIC50: read-out: MIC50; for MIC90: read-out: MIC90
[7] = tested on: MEM-nonsusceptible Enterobacterales with serine-carbapenemases; experiment: MIC, broth microdilution; format: cell-based; conditions: MEM-nonsusceptible Enterobacterales with serine-carbapenemases (58)
[8] = tested on: Carbapenemase-producing A. baumannii (4); experiment: MIC and MBC testing; format: cell-based, Acinetobacter baumannii; conditions: 4 carbapenemase-producing A. baumannii; fixed BLI concentration (μg/mL) in label; text: MBC/MIC ratios
[9] = tested on: MBL-producing isolates (Enterobacterales); experiment: MIC, broth microdilution; format: cell-based; conditions: Enterobacterales with metallo-carbapenemases (74), cefiderocol 73 isolates
[10] = tested on: 207 Enterobacterales including carbapenem-resistant isolates; experiment: MIC, broth microdilution; format: cell-based
[11] = tested on: serine-carbapenemase-producing isolates (Enterobacterales); experiment: MIC, broth microdilution; format: cell-based; conditions: Enterobacterales with serine-carbapenemases (80)
OXA-48 = OXA-48 (Klebsiella pneumoniae, UniProt Q6XEC0); experiment: Ki app determination (Waley's method); conditions: read-out: Ki app; OXA-48; means from three independent studies
SHV-2 = SHV-2 (Klebsiella pneumoniae, UniProt P0A9Z8); experiment: Ki app determination (Waley's method); conditions: read-out: Ki app; SHV-2; means from three independent studies
SHV-12 = SHV-12 (Klebsiella pneumoniae, UniProt P0A3M1, L31Q); experiment: Ki app determination (Waley's method); conditions: read-out: Ki app; SHV-12; means from three independent studies
KPC-3 = KPC-3 (Klebsiella pneumoniae, UniProt Q9F663, H272Y); experiment: Ki app determination (Waley's method); conditions: read-out: Ki app; KPC-3; means from three independent studies
PDC-11 = PDC-11 (Pseudomonas aeruginosa, UniProt P24735, form not given, species not given); experiment: Ki app determination (Waley's method); conditions: read-out: Ki app, means from three independent studies
OXA-72 = OXA-72 (Acinetobacter baumannii, UniProt Q5XQU0); experiment: Ki app determination (Waley's method); conditions: read-out: Ki app; OXA-72; means from three independent studies
IMP-6 = IMP-6 (Serratia marcescens, UniProt P52699, S214G); experiment: Ki app determination (Waley's method); conditions: read-out: Ki app; IMP-6; means from three independent studies
OXA-23 = OXA-23 (Acinetobacter baumannii, UniProt Q9L4P2); experiment: Ki app determination (Waley's method); conditions: read-out: Ki app; OXA-23; means from three independent studies
CTX-M-27 = CTX-M-27 (Escherichia coli, UniProt Q840M4); experiment: Ki app determination (Waley's method); conditions: read-out: Ki app; CTX-M-27; means from three independent studies
CTX-M-15 = CTX-M-15 (Escherichia coli, UniProt Q9EXV5); experiment: Ki app determination (Waley's method); conditions: read-out: Ki app; CTX-M-15; means from three independent studies
OXA-24 = OXA-24 (Acinetobacter baumannii, UniProt Q8RLA6); experiment: Ki app determination (Waley's method); conditions: read-out: Ki app; OXA-24; means from three independent studies
KPC-2 = KPC-2 (Klebsiella pneumoniae, UniProt Q9F663); experiment: Ki app determination (Waley's method); conditions: read-out: Ki app; KPC-2; means from three independent studies
OXA-65 = OXA-65 (Acinetobacter baumannii, UniProt Q58XD3); experiment: Ki app determination (Waley's method); conditions: read-out: Ki app; OXA-65; means from three independent studies
VIM-2 = VIM-2 (Escherichia coli, UniProt Q5U7L7); experiment: Ki app determination (Waley's method); conditions: read-out: Ki app; VIM-2; means from three independent studies
SHV-5 = SHV-5 (Klebsiella pneumoniae, UniProt P0A3M1); experiment: Ki app determination (Waley's method); conditions: read-out: Ki app; SHV-5; means from three independent studies
IMP-1 = IMP-1 (Serratia marcescens, UniProt P52699); experiment: Ki app determination (Waley's method); conditions: read-out: Ki app; IMP-1; means from three independent studies
OXA-66 = OXA-66 (Acinetobacter baumannii, UniProt Q58XD2); experiment: Ki app determination (Waley's method); conditions: read-out: Ki app; OXA-66; means from three independent studies
ACT-17 = ACT-17 (Enterobacter cloacae complex, UniProt Q8KP20); experiment: Ki app determination (Waley's method); conditions: read-out: Ki app, means from three independent studies
KPC-38 = KPC-38 (Klebsiella pneumoniae, UniProt Q9F663); experiment: Ki app determination (Waley's method); conditions: read-out: Ki app, means from three independent studies
CTX-M-14 = CTX-M-14 (Escherichia coli, UniProt Q9L5C7); experiment: Ki app determination (Waley's method); conditions: read-out: Ki app; CTX-M-14; means from three independent studies
VIM-1 = VIM-1 (Pseudomonas aeruginosa, UniProt A0A0F7KYQ8); experiment: Ki app determination (Waley's method); conditions: read-out: Ki app; VIM-1; means from three independent studies
[12] = CLSI breakpoints, marked c: breakpoints for β-lactam alone
[13] = fixed concentration (μg/mL) in label, read-out: MIC50
[14] = fixed concentration (μg/mL) in label, read-out: MIC90
[15] = CLSI breakpoints, marked c: breakpoints for β-lactam alone, tigecycline: FDA breakpoints
[16] = Ceftolozane/tazobactam-nonsusceptible Pseudomonas aeruginosa (45)
[17] = Imipenem/relebactam-nonsusceptible Pseudomonas aeruginosa (43)
[18] = MEM-nonsusceptible Pseudomonas aeruginosa (76)
[19] = All Enterobacterales (207), cefiderocol 205 isolates, CLSI breakpoints, marked c: breakpoints for β-lactam alone, tigecycline: FDA breakpoints

Q: For `CC(C)(O/N=C(\C(=O)N[C@@H]1C(=O)N2C(C(=O)[O-])=C(C[n+]3ccccc3)CS[C@H]12)c1csc(N)n1)C(=O)O` [CAZ, ceftazidime], which MIC/MBC range [1] is on record?
A: 1–256

Q: And the MIC/MBC range [2]?
A: ≥1

Q: And the “CLSI MIC interpretation I (intermediate)” value [3, 12]?
A: 1.8%

Q: What about the “CLSI MIC interpretation R (resistant)” value [3, 12] of the same compound?
A: 94.5%

Q: What about the “CLSI MIC interpretation S (susceptible)” value [3, 12] of the same compound?
A: 3.6%

Q: What about the MIC50 [3, 13] of the same compound?
A: > 32 µg/mL

Q: And the MIC90 [3, 14]?
A: > 32 µg/mL

Q: What about the “CLSI MIC interpretation I (intermediate)” value [4, 15] of the same compound?
A: 3.1%

Q: And the “CLSI MIC interpretation R (resistant)” value [4, 15]?
A: 87.4%

Q: What about the “CLSI MIC interpretation S (susceptible)” value [4, 15] of the same compound?
A: 9.4%

Q: What about the MIC50 [4, 13] of the same compound?
A: > 32 µg/mL

Q: What about the MIC90 [4, 14] of the same compound?
A: > 32 µg/mL

Q: And the “CLSI MIC interpretation I (intermediate)” value (96 P. aeruginosa; [12])?
A: 6.3%

Q: And the “CLSI MIC interpretation R (resistant)” value (96 P. aeruginosa; [12])?
A: 56.3%

Q: And the “CLSI MIC interpretation S (susceptible)” value (96 P. aeruginosa; [12])?
A: 37.5%

Q: And the MIC50 (96 P. aeruginosa; [13])?
A: 32 µg/mL (≈ 58.5 µM)

Q: What about the MIC90 (96 P. aeruginosa; [14]) of the same compound?
A: > 32 µg/mL

Q: What about the “CLSI MIC interpretation I (intermediate)” value [5, 15] of the same compound?
A: 0%

Q: And the “CLSI MIC interpretation R (resistant)” value [5, 15]?
A: 98.2%

Q: And the “CLSI MIC interpretation S (susceptible)” value [5, 15]?
A: 1.8%

Q: And the MIC50 [5, 13]?
A: > 32 µg/mL

Q: What about the MIC90 [5, 14] of the same compound?
A: > 32 µg/mL

Q: What about the “CLSI MIC interpretation I (intermediate)” value [6, 16] of the same compound?
A: 4.4%

Q: And the “CLSI MIC interpretation R (resistant)” value [6, 16]?
A: 93.3%

Q: And the “CLSI MIC interpretation S (susceptible)” value [6, 16]?
A: 2.2%

Q: And the “CLSI MIC interpretation I (intermediate)” value [6, 17]?
A: 7%

Q: And the “CLSI MIC interpretation R (resistant)” value [6, 17]?
A: 83.7%

Q: And the “CLSI MIC interpretation S (susceptible)” value [6, 17]?
A: 9.3%

Q: What about the “CLSI MIC interpretation I (intermediate)” value [6, 18] of the same compound?
A: 6.6%

Q: And the “CLSI MIC interpretation R (resistant)” value [6, 18]?
A: 68.4%

Q: And the “CLSI MIC interpretation S (susceptible)” value [6, 18]?
A: 25%

Q: What about the MIC50 [6, 16] of the same compound?
A: > 32 µg/mL

Q: And the MIC90 [6, 16]?
A: > 32 µg/mL

Q: What about the MIC50 [6, 17] of the same compound?
A: > 32 µg/mL

Q: And the MIC90 [6, 17]?
A: > 32 µg/mL

Q: And the MIC50 [6, 18]?
A: 32 µg/mL (≈ 58.5 µM)

Q: What about the MIC90 [6, 18] of the same compound?
A: > 32 µg/mL

Q: What about the “CLSI MIC interpretation I (intermediate)” value [7, 15] of the same compound?
A: 1.7%

Q: What about the “CLSI MIC interpretation R (resistant)” value [7, 15] of the same compound?
A: 82.8%

Q: And the “CLSI MIC interpretation S (susceptible)” value [7, 15]?
A: 15.5%

Q: What about the MIC50 [7, 13] of the same compound?
A: > 32 µg/mL

Q: And the MIC90 [7, 14]?
A: > 32 µg/mL

Q: And the MBC/MIC ratio range [8]?
A: 1–2

Q: What about the “CLSI MIC interpretation I (intermediate)” value [9, 15] of the same compound?
A: 0%

Q: And the “CLSI MIC interpretation R (resistant)” value [9, 15]?
A: 98.6%

Q: What about the “CLSI MIC interpretation S (susceptible)” value [9, 15] of the same compound?
A: 1.4%

Q: What about the MIC50 [9, 13] of the same compound?
A: > 32 µg/mL

Q: And the MIC90 [9, 14]?
A: > 32 µg/mL

Q: What about the “CLSI MIC interpretation I (intermediate)” value [10, 19] of the same compound?
A: 2.4%

Q: What about the “CLSI MIC interpretation R (resistant)” value [10, 19] of the same compound?
A: 82.1%

Q: What about the “CLSI MIC interpretation S (susceptible)” value [10, 19] of the same compound?
A: 15.5%

Q: What about the MIC50 ([10]; read-out: MIC50) of the same compound?
A: > 32 µg/mL

Q: And the MIC90 ([10]; read-out: MIC90)?
A: > 32 µg/mL

Q: And the “CLSI MIC interpretation I (intermediate)” value [11, 15]?
A: 2.5%

Q: What about the “CLSI MIC interpretation R (resistant)” value [11, 15] of the same compound?
A: 73.8%

Q: What about the “CLSI MIC interpretation S (susceptible)” value [11, 15] of the same compound?
A: 23.8%

Q: What about the MIC50 [11, 13] of the same compound?
A: > 32 µg/mL

Q: And the MIC90 [11, 14]?
A: > 32 µg/mL

Q: `NCCN[C@H]1CC[C@H](CC(=O)N[C@H]2Cc3cccc(C(=O)O)c3OB2O)CC1` [Tanibobactam, taniborbactam] was tested. Which Ki (OXA-48) did it give?
A: 204 ± 31 nM

Q: And the Ki (SHV-2)?
A: 20 ± 2.39 nM

Q: And the Ki (SHV-12)?
A: 4.73 ± 0.182 nM

Q: And the Ki (KPC-3)?
A: 0.947 ± 0.259 nM

Q: And the Ki (PDC-11)?
A: 34.6 ± 2.2 nM

Q: And the Ki (OXA-72)?
A: 25.2 µM

Q: And the Ki (IMP-6)?
A: > 100 µM

Q: And the Ki (OXA-23)?
A: > 100 µM

Q: What about the Ki (CTX-M-27) of the same compound?
A: 0.0344 ± 0.013 nM

Q: What about the Ki (CTX-M-15) of the same compound?
A: 0.0245 ± 0.0103 nM

Q: What about the Ki (OXA-24) of the same compound?
A: 2080 nM

Q: And the Ki (KPC-2)?
A: 1.1 ± 0.229 nM

Q: What about the Ki (OXA-65) of the same compound?
A: > 100 µM

Q: And the Ki (VIM-2)?
A: 322 ± 50 nM

Q: And the Ki (SHV-5)?
A: 5.9 ± 1.8 nM

Q: And the Ki (IMP-1)?
A: > 100 µM

Q: And the Ki (OXA-66)?
A: 61.7 µM

Q: And the Ki (ACT-17)?
A: 12.6 ± 1.55 nM

Q: And the Ki (KPC-38)?
A: 0.617 ± 0.0841 nM

Q: What about the Ki (CTX-M-14) of the same compound?
A: 0.0607 ± 0.0257 nM

Q: What about the Ki (VIM-1) of the same compound?
A: 271 ± 46.7 nM
